Experimental data reported in ChEMBL document CHEMBL1201862, “PubChem BioAssay data set” (2004).
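In this assay, cells in 96-well plates receive the compound at five concentrations for 48 hours. Endpoints are linearly interpolated between the surrounding concentrations. Here, GI50 denotes the concentration required for 50% inhibition of growth.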 The source made the active and inactive calls. No stated cut-off is given here; in the data, active = GI50 up to about 1.1 µM and inactive = higher.

Key:
Experiment in all cases: DTP human tumour cell line panel, 48 h
786-0 = system: 786-0
ACHN = system: ACHN
CCRF-CEM = system: CCRF-CEM
COLO 205 = system: COLO 205
HCC 2998 = system: HCC 2998
MOLT-4 = system: MOLT-4
NCI-H226 = system: NCI-H226
OVCAR-4 = system: OVCAR-4
OVCAR-5 = system: OVCAR-5
OVCAR-8 = system: OVCAR-8
SF-268 = system: SF-268
SF-295 = system: SF-295
SK-MEL-28 = system: SK-MEL-28
SK-MEL-2 = system: SK-MEL-2
SK-OV-3 = system: SK-OV-3
SN12C = system: SN12C
SNB-75 = system: SNB-75
SW-620 = system: SW-620
NCI-H522 = system: NCI-H522
SF-539 = system: SF-539

SMILES | GI50 (786-0) | GI50 (ACHN) | GI50 (CCRF-CEM) | GI50 (COLO 205) | GI50 (HCC 2998) | GI50 (MOLT-4) | GI50 (NCI-H226) | GI50 (OVCAR-4) | GI50 (OVCAR-5) | GI50 (OVCAR-8) | GI50 (SF-268) | GI50 (SF-295) | GI50 (SK-MEL-28) | GI50 (SK-MEL-2) | GI50 (SK-OV-3) | GI50 (SN12C) | GI50 (SNB-75) | GI50 (SW-620) | GI50 (NCI-H522) | GI50 (SF-539)
O=S(=O)(c1ccc(Cl)cc1)c1ccccc1C1=NCCN1 | > 100 µM (inactive) | > 100 µM (inactive) | > 100 µM (inactive) | > 100 µM (inactive) | > 100 µM (inactive) | > 100 µM (inactive) | > 100 µM (inactive) | > 100 µM (inactive) | > 100 µM (inactive) | > 100 µM (inactive) | > 100 µM (inactive) | > 100 µM (inactive) | > 100 µM (inactive) | > 100 µM (inactive) | > 100 µM (inactive) | > 100 µM (inactive) | > 100 µM (inactive) | > 100 µM (inactive) | – | –
CCCCNC(=S)c1ccc(OC(=O)Nc2ccc(Cl)cc2)cc1 | > 100 µM (inactive) | 70.6 µM (inactive) | 26.3 µM (inactive) | 15.9 µM (inactive) | > 100 µM (inactive) | 11.4 µM (inactive) | – | 8.43 µM (inactive) | 40.3 µM (inactive) | 12.6 µM (inactive) | 49.1 µM (inactive) | > 100 µM (inactive) | 22.3 µM (inactive) | 19.3 µM (inactive) | > 100 µM (inactive) | – | – | > 100 µM (inactive) | 24.5 µM (inactive) | > 100 µM (inactive)
O=C1CCSC2=C1SCc1sccc12 | > 100 µM (inactive) | – | > 100 µM (inactive) | > 100 µM (inactive) | > 100 µM (inactive) | > 100 µM (inactive) | – | > 100 µM (inactive) | > 100 µM (inactive) | > 100 µM (inactive) | > 100 µM (inactive) | > 100 µM (inactive) | > 100 µM (inactive) | > 100 µM (inactive) | > 100 µM (inactive) | > 100 µM (inactive) | 30.5 µM (inactive) | > 100 µM (inactive) | > 100 µM (inactive) | –
CCOC(=O)[C@H]1CSC[C@@H](C(=O)OC)N1 | > 100 µM (inactive) | > 100 µM (inactive) | > 100 µM (inactive) | > 100 µM (inactive) | > 100 µM (inactive) | > 100 µM (inactive) | – | > 100 µM (inactive) | > 100 µM (inactive) | > 100 µM (inactive) | > 100 µM (inactive) | > 100 µM (inactive) | > 100 µM (inactive) | > 100 µM (inactive) | > 100 µM (inactive) | > 100 µM (inactive) | 23.1 µM (inactive) | > 100 µM (inactive) | > 100 µM (inactive) | –
CCCC(=O)CC(C)C(=O)C(=O)NC12CC3CC(CC(C3)C1)C2 (stereo not drawn) | > 100 µM (inactive) | > 100 µM (inactive) | > 100 µM (inactive) | > 100 µM (inactive) | > 100 µM (inactive) | > 100 µM (inactive) | > 100 µM (inactive) | > 100 µM (inactive) | > 100 µM (inactive) | > 100 µM (inactive) | > 100 µM (inactive) | > 100 µM (inactive) | > 100 µM (inactive) | > 100 µM (inactive) | – | > 100 µM (inactive) | 97.5 µM (inactive) | > 100 µM (inactive) | > 100 µM (inactive) | –
c1ccc2c(c1)nc1n2CCSC1 | > 100 µM (inactive) | > 100 µM (inactive) | > 100 µM (inactive) | > 100 µM (inactive) | > 100 µM (inactive) | > 100 µM (inactive) | – | > 100 µM (inactive) | > 100 µM (inactive) | – | > 100 µM (inactive) | > 100 µM (inactive) | > 100 µM (inactive) | > 100 µM (inactive) | > 100 µM (inactive) | > 100 µM (inactive) | > 100 µM (inactive) | > 100 µM (inactive) | – | > 100 µM (inactive)
C[C@]12CCC(=O)C=C1C[C@@H](O)[C@@H]1[C@@H]2CC[C@@]2(C)[C@H]1CC[C@]2(C)O | > 100 µM (inactive) | > 100 µM (inactive) | > 100 µM (inactive) | > 100 µM (inactive) | > 100 µM (inactive) | – | > 100 µM (inactive) | > 100 µM (inactive) | > 100 µM (inactive) | > 100 µM (inactive) | > 100 µM (inactive) | > 100 µM (inactive) | > 100 µM (inactive) | > 100 µM (inactive) | > 100 µM (inactive) | > 100 µM (inactive) | > 100 µM (inactive) | > 100 µM (inactive) | > 100 µM (inactive) | –
O=C1CCCCC/C1=C\c1cccc([N+](=O)[O-])c1 | 33.2 µM (inactive) | 33.3 µM (inactive) | 12.2 µM (inactive) | 51.1 µM (inactive) | 21.2 µM (inactive) | 15.5 µM (inactive) | – | – | 46.2 µM (inactive) | 33 µM (inactive) | 18.5 µM (inactive) | 23.2 µM (inactive) | 38.1 µM (inactive) | 29.6 µM (inactive) | 79.1 µM (inactive) | 45.7 µM (inactive) | 38.2 µM (inactive) | 34.5 µM (inactive) | – | 21.5 µM (inactive)
COc1ccccc1C1c2cc3c(cc2OC(O)(CO)C1C(=O)O)OCO3.COc1ccccc1C1c2cc3c(cc2OC2(O)COC(=O)C12)OCO3 (stereo not drawn) | > 100 µM (inactive) | > 100 µM (inactive) | 92.7 µM (inactive) | > 100 µM (inactive) | > 100 µM (inactive) | 70 µM (inactive) | > 100 µM (inactive) | > 100 µM (inactive) | > 100 µM (inactive) | > 100 µM (inactive) | > 100 µM (inactive) | > 100 µM (inactive) | > 100 µM (inactive) | > 100 µM (inactive) | > 100 µM (inactive) | > 100 µM (inactive) | 26.9 µM (inactive) | > 100 µM (inactive) | – | > 100 µM (inactive)
N#CC1C[C@@H]2CC3(CCC2CN1C(=O)c1ccccc1)OCCO3 (stereo partly drawn) | > 100 µM (inactive) | > 100 µM (inactive) | > 100 µM (inactive) | > 100 µM (inactive) | > 100 µM (inactive) | > 100 µM (inactive) | – | > 100 µM (inactive) | > 100 µM (inactive) | > 100 µM (inactive) | > 100 µM (inactive) | > 100 µM (inactive) | > 100 µM (inactive) | 0.0925 µM (active) | > 100 µM (inactive) | > 100 µM (inactive) | > 100 µM (inactive) | > 100 µM (inactive) | – | > 100 µM (inactive)
C[C@@H]1C(=O)O[C@@H]2C[C@@]1(C)[C@@H]1C(=O)C3(O)OC14C2(C)OC(=O)[C@@]4(O)CCC1C3C(O)C=C2CC=CC(=O)[C@@]21C (stereo partly drawn) | 33.1 µM (inactive) | 53.6 µM (inactive) | 13.6 µM (inactive) | 34 µM (inactive) | 39.1 µM (inactive) | 20.7 µM (inactive) | – | 27.8 µM (inactive) | 25.5 µM (inactive) | 31.3 µM (inactive) | 26.7 µM (inactive) | 33.3 µM (inactive) | 22.2 µM (inactive) | 17.9 µM (inactive) | 47 µM (inactive) | 41.2 µM (inactive) | 15.7 µM (inactive) | 40.2 µM (inactive) | – | 25.3 µM (inactive)
COc1ccc(/C=N/NS(=O)(=O)c2ccc(/C=C3\NC(=O)NC3=O)cc2)cc1 | 47.1 µM (inactive) | > 100 µM (inactive) | > 100 µM (inactive) | > 100 µM (inactive) | > 100 µM (inactive) | > 100 µM (inactive) | > 100 µM (inactive) | > 100 µM (inactive) | > 100 µM (inactive) | 51.5 µM (inactive) | 28.1 µM (inactive) | 89.5 µM (inactive) | > 100 µM (inactive) | > 100 µM (inactive) | 73.5 µM (inactive) | > 100 µM (inactive) | 23.9 µM (inactive) | > 100 µM (inactive) | – | –
CCOc1cc2c(cnc3c4cc(OC)c(OC)cc4ccc23)cc1OC | > 100 µM (inactive) | > 100 µM (inactive) | > 100 µM (inactive) | > 100 µM (inactive) | > 100 µM (inactive) | > 100 µM (inactive) | – | > 100 µM (inactive) | > 100 µM (inactive) | > 100 µM (inactive) | > 100 µM (inactive) | > 100 µM (inactive) | > 100 µM (inactive) | > 100 µM (inactive) | > 100 µM (inactive) | > 100 µM (inactive) | > 100 µM (inactive) | > 100 µM (inactive) | > 100 µM (inactive) | > 100 µM (inactive)
O=C(Nc1ccc(Cl)cc1C(F)(F)F)C(=O)Nn1c(S)nc2ccccc2c1=O | > 100 µM (inactive) | > 100 µM (inactive) | 59.8 µM (inactive) | – | > 100 µM (inactive) | > 100 µM (inactive) | > 100 µM (inactive) | 60.4 µM (inactive) | > 100 µM (inactive) | > 100 µM (inactive) | > 100 µM (inactive) | > 100 µM (inactive) | > 100 µM (inactive) | > 100 µM (inactive) | > 100 µM (inactive) | > 100 µM (inactive) | 27.8 µM (inactive) | > 100 µM (inactive) | – | > 100 µM (inactive)
CC(=O)Nc1ccc(/C=C2\N=C(c3ccccc3)OC2=O)cc1 | > 100 µM (inactive) | > 100 µM (inactive) | 33.1 µM (inactive) | > 100 µM (inactive) | 36.1 µM (inactive) | 87.5 µM (inactive) | > 100 µM (inactive) | > 100 µM (inactive) | > 100 µM (inactive) | 6.32 µM (inactive) | > 100 µM (inactive) | 65.2 µM (inactive) | > 100 µM (inactive) | > 100 µM (inactive) | > 100 µM (inactive) | 55 µM (inactive) | 64.9 µM (inactive) | > 100 µM (inactive) | – | –
